Assay results taken from US7666890B2, “Synthesis and herbicidal activity of 1- (2-substituted benzo[d]thiazol-5-yl)-1H-1,2,4-triazol-5(4H)-one derivatives” (Huazhong Normal University, priority 2007, dated 2010).

What was measured:
Assay in all cases: Test of herbicidal activities (greenhouse pot method)
Assay type in all cases: in vivo
Details in all cases: single dose 300 g ai./h, treated before/after germination, 15 days later, greenhouse pot
[1] = test system: Amaranthus retroflexus
Protocol: (§1) Garden soil was collected from regions where no pesticide is used and mixed uniformly with mountain soil and organic humus soil at a volume ratio of 1:1:1.
(§2) Multiple flowerpots each having a diameter of 9.5 cm and a depth of 8 cm were filled with the soil mixture to 3/4 volume. After water was added to the soil and the soil was completely wet, seeds of three grass weeds and three broadleaf weeds were inserted into the flowerpots (10-15 seeds for each weed). After seeding, the seeds were covered with fine oil mixed with sand and having a thickness of 1-3 cm. After the soil absorbed enough water and became saturated, excess water at the bottom of the flowerpot was drained, and the seeds were placed in a greenhouse for growth.
(§3) The weeds were watered every day so as to keep relative humidity of the soil at approximately 80%, growing temperature of 15-30° C., and air humidity above 50%. As the grass weeds grew to a 2-leaf stage and the broadleaf weeds was in a leaf period, spraying operation […] was performed on the stems and leafs. Planting before germination was performed before spraying. Soil processing was performed before the seeds of the weeds emerged.
(§4) Six target weeds comprising three grass weeds: Echinochloa crusgalli, Digiatria sanguinalis, Setaria viridis, along with three broadleaf weeds: Brassica juncea, Amaranthus retroflexus, Chenopodium album were treated before/after germination using a so-called “greenhouse pot” method with a single dose. A treating dose was 300 g ai./h. The process was repeated three times, and a blank control was used.
(§5) A 3WPSHZ-500 type automatic spraying tower with a spraying area of 0.132 m^2, a spray volume of 10 mL, working pressure of 0.2 MPa, and a liquid volume of 40% of maximum was used. After treatment, the weeds were placed in a greenhouse at a temperature of 15-30° C. Reaction symptoms of the weeds were regularly observed, and 15 days later, five reaction levels were determined according to the following inhibition intervals: 90≦A≦100%; 80≦B<90%, 60≦C<80%; 50≦D<60%, E<50%.

[2] = test system: Brassica juncea
Protocol: as §1, §2, §3, §4, §5

[3] = test system: Chenopodium album
Protocol: as §1, §2, §3, §4, §5

[4] = test system: Digiatria sanguinalis
Protocol: as §1, §2, §3, §4, §5

[5] = test system: Echinochloa crusgalli
Protocol: as §1, §2, §3, §4, §5

[6] = test system: Setaria viridis
Protocol: as §1, §2, §3, §4, §5

| Compound | Herbicidal activity Amaranthus retroflexus (inhibition level) [1] | Herbicidal activity Brassica juncea (inhibition level) [2] | Herbicidal activity Chenopodium album (inhibition level) [3] | Herbicidal activity Digiatria sanguinalis (inhibition level) [4] | Herbicidal activity Echinochloa crusgalli (inhibition level) [5] | Herbicidal activity Setaria viridis (inhibition level) [6] |
| --- | --- | --- | --- | --- | --- | --- |
| Cc1nn(-c2cc3nc(SCc4cccc(Br)c4)sc3cc2F)c(=O)n1C(F)F [Compound 21] | A (90 ≦ A ≦ 100%) | B (80 ≦ B < 90%) | B (80 ≦ B < 90%) | B (80 ≦ B < 90%) | C (60 ≦ C < 80%) | E (E < 50%) |
| CCSc1nc2cc(-n3nc(C)n(C(F)F)c3=O)c(Br)cc2s1 [Compound 80] | A (90 ≦ A ≦ 100%) | A (90 ≦ A ≦ 100%) | E (E < 50%) | B (80 ≦ B < 90%) | A (90 ≦ A ≦ 100%) | A (90 ≦ A ≦ 100%) |
| CCS(=O)(=O)c1nc2cc(-n3nc(C)n(C(F)F)c3=O)c(Cl)cc2s1 [Compound 58] | A (90 ≦ A ≦ 100%) | B (80 ≦ B < 90%) | A (90 ≦ A ≦ 100%) | A (90 ≦ A ≦ 100%) | B (80 ≦ B < 90%) | C (60 ≦ C < 80%) |
| CCSc1nc2cc(-n3nc(C)n(C(F)F)c3=O)c(Cl)cc2s1 [Compound 86] | A (90 ≦ A ≦ 100%) | A (90 ≦ A ≦ 100%) | B (80 ≦ B < 90%) | A (90 ≦ A ≦ 100%) | A (90 ≦ A ≦ 100%) | A (90 ≦ A ≦ 100%) |
| Cc1nn(-c2cc3nc([S+](C)[O-])sc3cc2Br)c(=O)n1C(F)F (stereo not drawn) [Compound 108] | B (80 ≦ B < 90%) | A (90 ≦ A ≦ 100%) | E (E < 50%) | B (80 ≦ B < 90%) | A (90 ≦ A ≦ 100%) | B (80 ≦ B < 90%) |
| Cc1nn(-c2cc3nc(S(=O)(=O)Cc4c(F)cccc4F)sc3cc2Cl)c(=O)n1C(F)F [Compound 38] | C (60 ≦ C < 80%) | D (50 ≦ D < 60%) | C (60 ≦ C < 80%) | D (50 ≦ D < 60%) | C (60 ≦ C < 80%) | B (80 ≦ B < 90%) |
| Cc1nn(-c2cc3nc(S(=O)(=O)Cc4cccc([N+](=O)[O-])c4)sc3cc2F)c(=O)n1C(F)F [Compound 50] | B (80 ≦ B < 90%) | C (60 ≦ C < 80%) | D (50 ≦ D < 60%) | A (90 ≦ A ≦ 100%) | B (80 ≦ B < 90%) | B (80 ≦ B < 90%) |
| CCCSc1nc2cc(-n3nc(C)n(C)c3=O)c(F)cc2s1 [Compound 33] | A (90 ≦ A ≦ 100%) | A (90 ≦ A ≦ 100%) | B (80 ≦ B < 90%) | A (90 ≦ A ≦ 100%) | B (80 ≦ B < 90%) | B (80 ≦ B < 90%) |
| CCOC(=O)C(C)Sc1nc2cc(-n3nc(C(F)(F)F)n(C(F)F)c3=O)c(Cl)cc2s1 (stereo not drawn) [Compound 124] | B (80 ≦ B < 90%) | B (80 ≦ B < 90%) | B (80 ≦ B < 90%) | E (E < 50%) | D (50 ≦ D < 60%) | A (90 ≦ A ≦ 100%) |
